From patent US20030175438A1, “Treatments of solid substrates to enhance durability of treatments placed thereon” (priority 2002, published 2003)

How the values were obtained:
[1] = Bromphenol Blue (BPB) Extraction Method, spectrophotometric at 595 nm (modified CTM 0824), on treated fabric; assay type: physicochemical; details: for Boiling Durability - % BPB Extraction: Boil 30 min., Table XIV; for Boiled in H20 % Extraction / Change % Extraction / No Boil % Extraction: Table XI
E. coli = assay: CTM-0923 Dynamic Shake Flask Test (antimicrobial efficacy of treated fabric); assay type: cell-based; parameters: concentration or dose not given beside the values
Description: Sample Preparation: Fabric samples were obtained from the JoAnn fabric chain and were commercial fabrics. […] The treatment solutions were allowed to hydrolyze from the trimethoxysilyl form to the trisilanol form before adding the fabrics. This takes only a few minutes to essentially complete. The solution temperature was raised to 100° C. before treating the fabrics for 60 seconds by immersion in the solutions with moderate agitation of the solution within the flask. After removing the samples from the hot solution, they were nip rolled to remove excess liquid. […] The samples were air dried before testing unless otherwise noted. The Extraction, stated in percent, was measured using the Bromphenol Blue Extraction Method using spectrophotometric determination. This method is CTM 0824, which has been modified for use herein in the following manner. The chlorinated solvent has been eliminated and the wavelength is 595 nm. Further, Dow Corning® […] has been substituted for the Triton.RTM. X-100 wetting agent of the test. What is measured is the diminution of the BPB Absorbance at 595 nm relative to the BPB standard solution and it is reported in percent Extraction. Antimicrobial efficacy was determined using the CTM-0923 Dynamic Shake Flask Test unless otherwise stated. Samples were air dried before testing. The % extraction was measured using the BPB extraction Method using spectrophotometric determination at 595 nm. Antimicrobial efficacy was determined, when applicable, using the ASTM CTM 0923 Dynamic Shake Flask Test. The substrate may be either wet or dry. The testing results can be found on Tables XI and XII, respectively, infra.

Compound: CCCCCCCCCCCCCCCCCC[N+](C)(C)CCC[Si](OC)(OC)OC.[Cl-] [AMT, N, N-dimethyl-N-Octadecyl-3-(trimethoxysilyl)propanaminium chloride]
- % EXTRACTION CHANGE ([1]; PET, boiled vs not boiled, Table XV): −50%
- % BPB EXTRACTION @ 595 nm ([1]; PET, boiled, Table IX): 14%
- % BPB EXTRACTION @ 595 nm ([1]; PET, boiled, Table VII): 91%
- % Extraction @ 595 nm ([1]; PET, not boiled, Table I): 89%
- % BPB EXTRACTION @ 595 nm ([1]; PET, not boiled, Table IX): 87%
- % Extraction @ 595 nm ([1]; PET, not boiled, Table VI): 89%
- % BPB EXTRACTION @ 595 nm ([1]; PET, not boiled, Table VII): 93%
- Boiling Durability % BPB EXTRACTION @ 595 nm ([1]; PET, not boiled, Table XVII): 83%
- % BPB EXTRACTION @ 595 nm ([1]; PET, not boiled, oven dried 130° C. 5 minutes, Table XV): 86%
- % BPB EXTRACTION @ 595 nm ([1]; PPNW, boiled 30 minutes, Table XV): 45%
- Boiling Durability % BPB EXTRACTION @ 595 nm ([1]; PPNW, boiled 30 minutes, Table XVII): 37%
- % EXTRACTION CHANGE ([1]; PPNW, boiled vs not boiled, Table XV): −40%
- % EXTRACTION CHANGE ([1]; PPNW, boiled vs not boiled, Table XVII): −40%
- Boiling Durability % BPB EXTRACTION @ 595 nm ([1]; PPNW, not boiled, Table XVII): 77%
- % BPB EXTRACTION @ 595 nm ([1]; PPNW, not boiled, oven dried 130° C. 5 minutes, Table XV): 85%
- % Extraction @ 595 nm ([1]; RAYON, boiled 30 minutes, Table I): 35%
- % BPB EXTRACTION @ 595 nm ([1]; RAYON, boiled 30 minutes, Table III): 50%
- % Extraction @ 595 nm ([1]; RAYON, boiled 30 minutes, Table VI): 44%
- % BPB Extraction (change on boiling) ([1]; RAYON, boiled vs not boiled, Table I): −55%
- % EXTRACTION CHANGE ([1]; RAYON, boiled vs not boiled, Table III): −44%
- % EXTRACTION CHANGE ([1]; RAYON, boiled vs not boiled, Table IX): −40%
- EXTRACTION CHANGE ([1]; RAYON, boiled vs not boiled, Table VI): −50%
- % EXTRACTION CHANGE ([1]; RAYON, boiled vs not boiled, Table VII): −50%
- % BPB EXTRACTION @ 595 nm ([1]; RAYON, boiled, Table IX): 52%
- % BPB EXTRACTION @ 595 nm ([1]; RAYON, boiled, Table VII): 42%
- % Extraction @ 595 nm ([1]; RAYON, not boiled, Table I): 90%
- % BPB EXTRACTION @ 595 nm ([1]; RAYON, not boiled, Table III): 94%
- % BPB EXTRACTION @ 595 nm ([1]; RAYON, not boiled, Table IX): 92%
- % Extraction @ 595 nm ([1]; RAYON, not boiled, Table VI): 94%
- % BPB EXTRACTION @ 595 nm ([1]; RAYON, not boiled, Table VII): 92%
- Boiling Durability - % BPB Extraction ([1]; Rayon): 9.88%
- Boiling Durability - % BPB Extraction ([1]; Rayon, treatment at pH = 11): 21.36%
- Strike Rate - % BPB Extraction ([1]; Rayon, No Boil, treatment at pH = 11, Table XIII): 19.5%
- Boiled in H20 % Extraction ([1]; cure: 130° C. for 5 Min): 21%
- Change % Extraction ([1]; cure: 130° C. for 5 Min): −36%
- No Boil % Extraction ([1]; cure: 130° C. for 5 Min): 57%
- Boiled in H20 % Extraction ([1]; cure: Air Dried): 21%
- Change % Extraction ([1]; cure: Air Dried): −46%
- No Boil % Extraction ([1]; cure: Air Dried): 67%
- Efficacy - % Reduction (E. coli; ACRYLIC/MODACRYLIC, boiled 30 minutes, Table V): 84%
- Efficacy - % Reduction (E. coli; ACRYLIC/MODACRYLIC, not boiled, Table V): 90%
- Efficacy - % Reduction (E. coli; COTTON, boiled 30 minutes, Table V): 99%
- DSF - % REDUCTION (E. coli; COTTON, boiled 30 minutes, Table VIII): 99%
- DSF - % REDUCTION (E. coli; COTTON, boiled, Table X): 93%
- Efficacy - % Reduction (E. coli; COTTON, not boiled, Table V): 99%
- DSF - % REDUCTION (E. coli; COTTON, not boiled, Table VIII): 99%
- DSF - % REDUCTION (E. coli; COTTON, not boiled, Table X): 89%
- Efficacy - % Reduction (E. coli; NYLON, boiled 30 minutes, Table II): 84%
- Efficacy - % Reduction (E. coli; NYLON, boiled 30 minutes, Table V): 19%
- DSF - % REDUCTION (E. coli; NYLON, boiled 30 minutes, Table VIII): 22%
- DSF - % REDUCTION (E. coli; NYLON, boiled, Table X): 99%
- Efficacy - % Reduction (E. coli; NYLON, not boiled, Table II): 90%
- Efficacy - % Reduction (E. coli; NYLON, not boiled, Table V): 99%
- DSF - % REDUCTION (E. coli; NYLON, not boiled, Table VIII): 99%
- DSF - % REDUCTION (E. coli; NYLON, not boiled, Table X): 99%
- Efficacy - % Reduction (E. coli; PET, boiled 30 minutes, Table II): 99%
- DSF - % REDUCTION (E. coli; PET, boiled 30 minutes, Table VIII): 91%
- DSF - % REDUCTION (E. coli; PET, boiled, Table X (untreated control 50)): 74%
- Efficacy - % Reduction (E. coli; PET, not boiled, Table II): 99%
- DSF - % REDUCTION (E. coli; PET, not boiled, Table VIII): 99%
- DSF - % REDUCTION (E. coli; PET, not boiled, Table X (untreated control 50)): 79%
- Efficacy - % Reduction (E. coli; RAYON, boiled 30 minutes, Table II): 19%
- DSF - % REDUCTION (E. coli; RAYON, boiled 30 minutes, Table VIII): 94%
- DSF - % REDUCTION (E. coli; RAYON, boiled, Table X): 99%
- Efficacy - % Reduction (E. coli; RAYON, not boiled, Table II): 99%
- DSF - % REDUCTION (E. coli; RAYON, not boiled, Table VIII): 99%
- DSF - % REDUCTION (E. coli; RAYON, not boiled, Table X): 99%
